The source of these data is US11970483B2, “Heterocyclic compound” (Takeda Pharmaceutical Company Limited, priority 2018, dated 2024).

In one data set the target is T1, MDR1 (Homo sapiens, UniProt P08183).
T1 construct: expressed in transfected cells; host or cells: LLC-PK1 cells (porcine kidney)
The experiment in a line: MDR1 membrane permeability test. The format is in vitro ADME. The note with it: human MDR1-expressing LLC-PK1 cells, 10 μmol/L test compound, pH 7.4, read-out: Efflux ratio (ER). The protocol: MDR1 membrane permeability test
When MDR1 is expressed in excess in LLC-PK1 cell, which is a polar cell, MDR1 is localized in apical membrane (A), thus promoting transcellular transport from the basement membrane side (B) toward direction A. When a ratio to the transcellular transport in the opposite direction is taken and a ratio to a control cell in which a mock vector has been introduced is further taken, an efflux ratio of MDR1 to simple diffusion (corrected efflux ratio) is calculated. Similarly, when a brain/plasma concentration ratio in Mdr1(−/−) mouse is divided by a brain/plasma concentration ratio in wild-type mouse, an efflux ratio of Mdr1 to simple diffusion in blood-brain barrier (BBB) (Kp, brain ratio, higher value means lower central nervous system permeability) is calculated. Adachi Y. et al. (Reference 1) has reported a positive correlation between corrected efflux ratio and Kp, brain ratio (FIG. 5(C)), and efflux ratio in MDR1 expressing cell and Kp, brain ratio (FIG. 5(B)).
To confirm the central nervous system permeability of the compounds of the present invention, a MDR1 membrane permeability test was performed by the following method.
Digoxin and lucifer yellow (LY) were purchased from Sigma-Aldrich, Diclofenac, colchicine and alprenolol were purchased from Wako Pure Chemical Industries, Ltd., and other reagents used were commercially available products of special grade.
Human MDR1-expressing LLC-PK1 cells were cultured according to the report of Takeuchi et al. (Reference 2). Human MDR1-expressing LLC-PK1 cells were cultured in 10% fetal bovine serum (Invitrogen), 500 μg/ml G418 (Invitrogen), 150 ng/ml colchicine-containing M199 medium (Invitrogen) under 5% CO2 conditions at 37° C.
Transcellular transport was performed according to the report of Sugimoto et al. (Reference 3). The cells were cultured for 3 days on HTS Transwell (registered trademark) 96 well permeable support (pore size 0.4 μm, 0.143 cm^2 surface area, Corning Life Sciences) having polyethylene terephthalate membrane on which the cells had been seeded at 3.45×10^4 cells/well. […] After 1 hr, the sample was collected from the side opposite to the side where the drug solution was added, and the concentration of the test compound was measured by LC-MS/MS. […]
LY was measured by a fluorescence plate reader (Fluoroskan Ascent FL).
Papp, A to B and Papp, B to A (apparent permeability) were calculated from the formula (1), and the efflux ratio (ER) was calculated from the formula (2). […]

Another data set has as its system Male SD rats. The data set can be described thus: Rat defecation experiment. The format is in vivo. The note with it: oral, mean±standard error. The method, then: Rat Defecation Experiment
Male SD rats (5-6 weeks old) were used after an acclimation period for about 1 week. A test drug (1 mg/kg or 3 mg/kg) was suspended in 0.5% methylcellulose solution and orally administered at a volume of 5 mL/kg, and the number of feces 2 hr later was counted. Only 0.5% methylcellulose was administered to a solvent administration group.

T1 sequence (P08183 whole entry): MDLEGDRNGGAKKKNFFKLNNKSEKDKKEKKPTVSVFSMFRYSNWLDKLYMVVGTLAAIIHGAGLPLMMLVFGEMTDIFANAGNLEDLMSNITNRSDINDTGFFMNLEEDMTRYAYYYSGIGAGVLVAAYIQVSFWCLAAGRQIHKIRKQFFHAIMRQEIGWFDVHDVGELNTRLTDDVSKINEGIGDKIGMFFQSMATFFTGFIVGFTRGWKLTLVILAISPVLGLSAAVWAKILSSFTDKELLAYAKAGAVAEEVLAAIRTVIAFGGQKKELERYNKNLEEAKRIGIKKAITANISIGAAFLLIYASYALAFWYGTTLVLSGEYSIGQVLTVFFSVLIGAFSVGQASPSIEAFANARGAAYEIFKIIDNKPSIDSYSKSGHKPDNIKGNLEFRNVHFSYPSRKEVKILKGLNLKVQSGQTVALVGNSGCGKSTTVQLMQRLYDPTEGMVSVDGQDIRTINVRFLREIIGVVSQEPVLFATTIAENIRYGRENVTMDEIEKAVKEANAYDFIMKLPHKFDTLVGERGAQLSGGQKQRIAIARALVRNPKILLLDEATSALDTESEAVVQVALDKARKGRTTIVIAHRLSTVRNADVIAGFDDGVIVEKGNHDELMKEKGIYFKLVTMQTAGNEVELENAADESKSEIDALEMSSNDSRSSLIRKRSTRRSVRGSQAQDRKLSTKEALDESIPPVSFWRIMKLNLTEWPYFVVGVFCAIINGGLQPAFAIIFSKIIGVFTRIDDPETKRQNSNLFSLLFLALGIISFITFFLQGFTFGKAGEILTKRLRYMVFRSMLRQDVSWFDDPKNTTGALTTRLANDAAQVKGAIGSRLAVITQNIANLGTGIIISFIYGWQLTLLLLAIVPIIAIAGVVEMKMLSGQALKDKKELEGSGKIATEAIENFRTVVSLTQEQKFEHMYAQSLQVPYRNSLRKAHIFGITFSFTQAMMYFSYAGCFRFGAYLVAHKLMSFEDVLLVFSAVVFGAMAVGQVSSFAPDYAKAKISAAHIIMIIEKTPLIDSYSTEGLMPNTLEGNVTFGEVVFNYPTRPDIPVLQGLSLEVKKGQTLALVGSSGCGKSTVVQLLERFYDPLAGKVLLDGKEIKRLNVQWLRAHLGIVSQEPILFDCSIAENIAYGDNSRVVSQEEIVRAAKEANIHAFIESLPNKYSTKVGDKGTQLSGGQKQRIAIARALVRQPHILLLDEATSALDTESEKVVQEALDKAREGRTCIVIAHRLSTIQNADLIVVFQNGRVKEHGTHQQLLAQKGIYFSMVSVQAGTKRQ

For the compound `Cc1c(Cc2ccc(-c3cn(C)nn3)cc2)cc(C(=O)N[C@H]2CCOC[C@@H]2O)c2c1CCO2` [Example 1, 1,5-anhydro-2,3-dideoxy-3-[(4-methyl-5-{[4-(1-methyl-1H-1,2,3-triazol-4-yl)phenyl]methyl}-2,3-dihydro-1-benzofuran-7-carbonyl)amino]-L-threo-pentitol], the efflux ratio at 1 h, 10 μmol/L on MDR1 was found to be 3.

For the compound `Cc1c(Cc2ccc(C(=O)NCC(=O)N(C)C)c(F)c2)cc(C(=O)N[C@H]2CCOC[C@@H]2O)c2c1CCO2` [Example 28, 1,5-anhydro-2,3-dideoxy-3-({5-[(4-{[2-(dimethylamino)-2-oxoethyl]carbamoyl}-3-fluorophenyl)methyl]-4-methyl-2,3-dihydro-1-benzofuran-7-carbonyl}amino)-L-threo-pentitol], the “number of feces 2 hr later” value with Male SD rats (1 mg/kg) came to 8.0 ± 1.0; in the data set with Male SD rats (3 mg/kg) it was 8.1 ± 1.4. The efflux ratio at 1 h, 10 μmol/L at MDR1 came to 12.

As to `COCCNC(=O)c1ccc(Cc2cc(C(=O)N[C@H]3CCOC[C@@H]3O)c3c(c2C)CCO3)cc1F` [Example 27, 1,5-anhydro-2,3-dideoxy-3-{[5-({3-fluoro-4-[(2-methoxyethyl)carbamoyl]phenyl}methyl)-4-methyl-2,3-dihydro-1-benzofuran-7-carbonyl]amino}-L-threo-pentitol], the efflux ratio at 1 h, 10 μmol/L at MDR1 amounted to 6.2.

As to `Cc1c(Cc2ccc(C(=O)NC[C@H]3CCCO3)c(F)c2)cc(C(=O)N[C@H]2CCOC[C@@H]2O)c2c1CCO2` [Example 29, 1,5-anhydro-2,3-dideoxy-3-[(5-{[3-fluoro-4-({[(2R)-oxolan-2-yl]methyl}carbamoyl)phenyl]methyl}-4-methyl-2,3-dihydro-1-benzofuran-7-carbonyl)amino]-L-threo-pentitol], the entries for the “number of feces 2 hr later” value in the data set with Male SD rats (1 mg/kg) and in the data set with Male SD rats (3 mg/kg) were 5.0 ± 0.8 and 9.0 ± 0.7, respectively. The efflux ratio at 1 h, 10 μmol/L at MDR1 was found to be 6.
